The values that follow come from patent publication US3966957A, “Method for controlling emesis with N-(1-substituted-3-pyrrolidinyl)benzamides and thiobenzamides” (A. H. Robins Company, Incorporated, priority 1974, dated 1976).

One data set has as its system catalepsy. Briefly: Catalepsy in rats (IP), modified Tedeschi procedure. The format is in vivo, rat. The conditions noted are these: IP administration in rats, as free base (Table 7).
Data set [1] relates to apomorphine-induced emesis. The experiment in a line: Reduction of apomorphine-induced emesis in dogs, oral administration. Format: in vivo, dog. The protocol:
(§1) The anti-emetic properties of the compounds of Formulae I and II were established using a modification of the methods of Chen and Ensor, J. Pharmac. Exp. Ther. 98: 245-250 (1950) and of Leonard et al, J. Pharmac. Exp. Ther. 154, 339-345 (1966). Drug activity was assessed by its ability to reduce the frequency of apomorphine-induced emesis in dogs. The dogs were prescreened for fairly constant emetic responses to the subcutaneous administration of 0.1 mg./kg. of apomorphine hydrochloride, and those which vomited five or more times in the 40-minute period after apomorphine administration were selected for drug studies.
Groups of three dogs were used in preliminary tests and for the determinations of time of peak drug effect. Dose response curves were usually obtained using four drug-treated groups; each group contained at least three dogs. The dogs were fed approximately 17 hours prior to a test. […] Frequency of emesis was determined during the next 40 minutes and emesis was counted as the actual expulsion of stomach contents. […]
Dogs were re-used at intervals of not less than one week. […] The difference is expressed as a percentage decrease relative to controls. […] The ED50 was calculated by the method of Goldstein (Biostatistics, An Introductory Test; Pages 156-161; The MacMillan Co., New York, 1964). […]

Data set [2] has as its system apomorphine-induced emesis. The experiment in a line: Reduction of apomorphine-induced emesis in dogs, subcutaneous administration. The format is in vivo, dog. The settings on record: for ED50: Canis lupus familiaris, sc, read-out: ED50, Anti-Emetic Effect of Subcutaneous Administration. The method, then: as §1
Groups of three dogs were used in preliminary tests and for the determinations of time of peak drug effect. Dose response curves were usually obtained using four drug-treated groups; each group contained at least three dogs. The dogs were fed approximately 17 hours prior to a test. Drugs were administered and at suitable intervals the dogs received 0.1 mg/kg of apormorphine hydrochloride subcutaneously. Frequency of emesis was determined during the next 40 minutes and emesis was counted as the actual expulsion of stomach contents.
In oral studies, drugs were administered in gelatin capsules (controls received an empty capsule). In the subcutaneous studies, drugs were administered in distilled water and/or polyethylene glycol-300.
Dogs were re-used at intervals of not less than one week. The ED50 is the dose which reduces the frequency of emesis of drug treated dogs to a value 50% below that of controls. Mean frequency of emesis for each drug treated group was compared with a mean control value derived by pooling the prior control emetic frequencies for all dogs used on that test day. The difference is expressed as a percentage decrease relative to controls. The per cent decrease in mean frequency of emesis for each drug-treated group (ordinate) was plotted against log dose (abscissa) on semi-log graph sheets. The ED50 was calculated by the method of Goldstein (Biostatistics, An Introductory Test; Pages 156-161; The MacMillan Co., New York, 1964).
Three dogs selected as described above were injected subcutaneously with 5.0 mg./kg. (3.12 mg./kg. expressed as free base) of the test drug 4-amino-N-(1-cyclohexyl-3-pyrrolidinyl)-N-methyl-benzamide cyclohexane-sulfamate from compound Example 4. One hour later apormorphine hydrochloride was administered in doses of 0.1 mg./kg. subcutaneously. Complete blockage of emesis (-100%) was observed over the 40-minute period following administration of apomorphine hydrochloride. […] (0.27 mg./kg. expressed as free base) was established for subcutaneous administration of the test drug.
Using the technique described in the foregoing general procedure and pharmacology in Example 1 for subcutaneous evaluation of test drugs against apomorphine induced emesis, results for additional compounds were obtained as shown in Table 4.

The nature of data set [3]: Catalepsy in rats (IP), modified Tedeschi procedure. The settings on record: rat, in vivo; IP administration in rats; as free base (Table 7). The format is in vivo, rat.
Description: Drugs were blind tested with positive and negative controls. […] The modified procedure is as follows.
Groups of six rats are dosed (IP) with drugs in saline solution and tested hourly over a six hour period. A phenothiazine or non-phenothiazine reference standard is tested concomitantly as a positive control; negative controls receive only the saline vehicle. After administration the rats are positioned hourly with each foot on a No. 7 rubber stopper. A rat is considered cataleptic if it remains immobile on the stoppers for five seconds or longer at two or more consecutive hourly observation intervals.

In the case of `Nc1ccc(C(=O)NC2CCN(C3CCCCC3)C2)cc1` (stereo not drawn) [Example 23], the “Catalepsy (As Free Base), percent of rats cataleptic” value in the data set with catalepsy (at 94.2 mg/kg) is reported as 33%.

In data set [1] (oral, dose level of 5 mg./kg. (Table 5 footnote a)), `O=C(NC1CCN(C2CCCCC2)C1)c1ccccc1` (stereo not drawn) [Example 24] had a reduction in emesis of 60%. `CN(C(=O)c1ccc(N)cc1)C1CCN(C2CCCCC2)C1` (stereo not drawn) [Example 4, 4-Amino-N-(1-cyclohexyl-3-pyrrolidinyl)-N-methylbenzamide Cyclohexanesulfamate]: the “Catalepsy (As Free Base), ED50 or other: highest dose without catatonia” value in the data set with catalepsy is listed as “no catatonia to 125”. Also, the “change in apomorphine induced emesis” value in data set [1] (oral 2.5 mg./kg. in capsules, 2 h before apomorphine 0.1 mg./kg. s.c.) was -95%. The “change in frequency of apomorphine-induced emesis” value in data set [2] (subcutaneous 5.0 mg./kg. (3.12 mg./kg. as free base), 1 h before apomorphine 0.1 mg./kg. s.c., 40-minute observation, dogs) is -100%. Take `O=C(NC1CCN(C2CCCCC2)C1)c1ccc(F)cc1` (stereo not drawn) [Example 10]: the ED50 in data set [2] turned out to be 0.15 mg/kg.

Consider `O=C(NC1CCN(c2ccccc2)C1)c1ccc([N+](=O)[O-])cc1` (stereo not drawn) [Example 3, N-(1-Phenyl-3-pyrrolidinyl)-4-nitrobenzamide], for which, in data set [2] (dogs, subcutaneous, dose level of 5 mg./kg. (Table 4 footnote a)), the reduction in emesis is recorded as 50%. Regarding `O=C(NC1CCN(C2CCCCC2)C1)c1cc([N+](=O)[O-])cc([N+](=O)[O-])c1` (stereo not drawn) [Example 12], the ED50 in data set [2] came to 0.15 mg/kg. Turning to `CN(C(=O)c1ccc([N+](=O)[O-])cc1)C1CCN(C2CCCCC2)C1` (stereo not drawn) [Example 27], in the data set on catalepsy, the “Catalepsy (As Free Base), ED50 or other: highest dose without catatonia” value is given as “no catatonia to 100” and the lethal dose is 100 mg/kg.

Regarding `O=C(NC1CCN(C2CCCCC2)C1)c1ccc([N+](=O)[O-])cc1` (stereo not drawn) [Example 25], in data set [3], the ED50 worked out at 28 mg/kg.

With `CC(=O)Nc1ccc(C(=O)NC2CCN(C3CCCCC3)C2)cc1` (stereo not drawn) [Example 7, N-(1-Cyclohexyl-3-pyrrolidinyl)-4-acetamidobenzamide], the ED50 in data set [2] worked out at 2.4 mg/kg.
